US6057311A, “Benzodiazonine derivatives binding to cholecystokinin or gastrin receptors” (James Black Foundation Limited, priority 1996, dated 2000)

Tests used:
CCKA = target: T1, CCKA (Cavia porcellus, UniProt Q63931); experiment: CCKA binding assay, guinea pig pancreas membranes ([125I]-CCK8(S)); conditions: [125I]-CCK8(S) 200 pM, 0.375 μM PD134,308, 150 min at 21±3° C.; for Ki: pH 7.2, read-out: pKi (Guinea pig pancreas) (converted); for pKi (Guinea pig pancreas): pH 7.2
T1 construct: The pancreatata were removed from male guinea-pigs; from tissue; host or cells: pancreas of male Dunkin Hartley guinea pigs, membranes
T1 sequence (Q63931 1-430): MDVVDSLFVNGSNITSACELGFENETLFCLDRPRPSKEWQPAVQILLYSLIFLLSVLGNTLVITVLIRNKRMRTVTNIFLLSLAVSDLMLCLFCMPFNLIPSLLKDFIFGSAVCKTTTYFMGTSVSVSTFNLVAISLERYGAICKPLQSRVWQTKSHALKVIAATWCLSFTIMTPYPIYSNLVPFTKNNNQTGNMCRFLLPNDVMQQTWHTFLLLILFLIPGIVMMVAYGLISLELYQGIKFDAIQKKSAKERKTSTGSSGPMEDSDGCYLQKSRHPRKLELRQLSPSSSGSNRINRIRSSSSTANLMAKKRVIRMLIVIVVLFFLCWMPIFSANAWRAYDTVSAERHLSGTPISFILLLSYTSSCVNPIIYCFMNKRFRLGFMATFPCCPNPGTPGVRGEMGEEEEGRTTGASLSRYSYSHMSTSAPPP
Method in brief: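 Guinea-pig pancreatic membranes (1 mg/ml original wet weight, containing 0.375 μM PD134,308) were incubated 150 min at 21±3 °C in HEPES pH 7.2 with [125I]-CCK8(S), added at 200 pM, and competitor. Non-specific binding used L-364,718 (100 nM added). Bound tracer was filtered on GF/B and gamma-counted.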

CCKB receptor = target: T2, CCKB receptor (Mus musculus, UniProt P56481); experiment: radioligand binding assay at the CCKB receptor in mouse cortical membranes ([125I]-CCK8S); conditions: [125I]-CCK8S 200 pM, 150 min at 21±3° C.; for Ki: pH 7.2, read-out: pKi (Mouse cortex) (converted); for pKi (Mouse cortex): pH 7.2
T2 construct: The cortex was dissected, weighed and homogenised in 40 ml ice-cold buffer; tissue Charles River (animals); host or cells: cerebral cortex of male CD1 mice, membranes
T2 sequence (P56481 1-453): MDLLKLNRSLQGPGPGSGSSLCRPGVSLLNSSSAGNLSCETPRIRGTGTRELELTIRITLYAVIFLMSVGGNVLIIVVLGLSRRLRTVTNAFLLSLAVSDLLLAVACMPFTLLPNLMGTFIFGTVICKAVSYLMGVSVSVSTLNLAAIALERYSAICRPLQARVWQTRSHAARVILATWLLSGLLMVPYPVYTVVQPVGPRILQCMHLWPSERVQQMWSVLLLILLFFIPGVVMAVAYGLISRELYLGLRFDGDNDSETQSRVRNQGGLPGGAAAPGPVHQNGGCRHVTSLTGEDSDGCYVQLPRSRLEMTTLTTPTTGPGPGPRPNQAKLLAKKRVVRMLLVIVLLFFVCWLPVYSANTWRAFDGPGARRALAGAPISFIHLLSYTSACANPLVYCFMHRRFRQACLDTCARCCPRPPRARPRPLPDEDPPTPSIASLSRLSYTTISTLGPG
Method in brief: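 Male CD1 mouse cortical membranes (2 mg/ml original wet weight) were incubated 150 min at 21±3 °C in HEPES buffer pH 7.2 (130 mM NaCl, 4.7 mM KCl, 5 mM MgCl2, 1 mM EDTA, bacitracin) with [125I]-CCK8S and competitor. Non-specific binding was defined with L-365,260; bound label was measured by GF/B filtration and gamma counting.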

Row | Compound | Ki (CCKA) [µM] | Ki (CCKB receptor) [µM] | pKi (Guinea pig pancreas) (CCKA) | pKi (Mouse cortex) (CCKB receptor)
1 | Cc1cccc(NC(=O)N2CCC(=O)c3ccccc3NC(=O)C2)c1 [Example 5, 4-(3-methylphenyl)carbamyl-2,7-dioxo-2,3,4,5,6,7-hexahydro-1H-1,4-benzodiazonine] | 5.01 | 10 |  | 
2 | CC(=O)N1CCC(=O)c2ccccc2N(Cc2ccccc2)C(=O)C1CC12CC3CC(CC(C3)C1)C2 (racemic) [Example 34, (R/S)-4-acetyl-3-(1-adamantyl)methyl-1-benzyl-2,7-dioxo-2,3,4,5,6,7-hexahydro-1H-1,4-benzodiazonine] | 2.51 | 3.98 |  | 
3 | 1-benzyl-7-hydroxy-4-(3-methylphenyl)carbamyl-2-oxo-2,3,4,5,6,7-hexahydro- 1H-1,4-benzodiazonine (isomer 1) [Example 7] |  |  | 5.8 | 5.0
4 | CC(=O)N1[C@H](CC23CC4CC(CC(C4)C2)C3)C(=O)N(Cc2ccccc2)c2ccccc2C(=O)C[C@H]1C(=O)N1CCC[C@H]1C(=O)O (single isomer, unassigned; isomer 1) [Example 27] |  |  | 5.0 | 5.0
5 | Cc1cccc(NC(=O)N2CCC(=O)c3ccccc3N(CC(=O)OC(C)(C)C)C(=O)C2)c1 [Example 1, 1-tert-butyloxycarbonylmethyl-4-(3-methylphenyl)carbamyl-2,7-dioxo-2,3,4,5,6,7-hexahydro-1H-1,4-benzodiazonine] | 0.2 | 10 |  | 
6 | O=C1C[C@@H](C(=O)O)N(C(=O)OCc2ccccc2)[C@H](CC23CC4CC(CC(C4)C2)C3)C(=O)N(Cc2ccccc2)c2ccccc21 [Example 20, (3R,5S)-3-(1-adamantyl)methyl-1-benzyl-4-benzyloxycarbonyl-2,7dioxo-2,3,4,5,6,7-hexahydro-1H-1,4-benzodiazonine-5-carboxylate] | 3.98 | 3.16 |  | 
7 | CC(=O)N1[C@H](CC23CC4CC(CC(C4)C2)C3)C(=O)N(Cc2ccccc2)c2ccccc2C(=O)C[C@H]1C(=O)N(C)CC(=O)O (single isomer, unassigned; isomer 2) [Example 30] |  |  | 5.1 | 5.0
8 | CC(=O)N1[C@H](CC23CC4CC(CC(C4)C2)C3)C(=O)N(Cc2ccccc2)c2ccccc2C(=O)C[C@H]1C(=O)O [Example 11, (3R,5S) 4-acetyl-3-[(1-adamantyl)methyl]-1-benzyl-2,7-dioxo-2,3,4,5,6,7-hexahydro-1H-1,4-benzodiazonine-5-carboxylate] | 5.01 | 1 |  | 
9 | Cc1cccc(NC(=O)N2CCC(=O)c3ccccc3N(Cc3ccccc3)C(=O)C2)c1 [Example 3, 1-benzyl-4-(3-methylphenyl)carbamyl-2,7-dioxo-2,3,4,5,6,7-hexahydro-1H-1,4-benzodiazonine] | 0.316 | 7.94 |  | 
10 | Cc1cccc(NC(=O)N2CCC(=O)c3ccccc3N(CC(=O)N3CCCC3)C(=O)C2)c1 [Example 6, 4-(3-methylphenyl)carbamyl-2,7-dioxo-1-pyrrolidinoyl-methyl-2,3,4,5,6,7-hexahydro-1H-1,4-benzodiazonine] | 5.01 | 10 |  | 
11 | CC(=O)N1[C@H](CC23CC4CC(CC(C4)C2)C3)C(=O)N(Cc2ccccc2)c2ccccc2C(=O)C[C@H]1C(=O)N1CCC[C@H]1C(=O)O (single isomer, unassigned; isomer 2) [Example 28] |  |  | 4.6 | 5.4
12 | O=C(O)CCC(=O)N1CCC(=O)c2ccccc2N(Cc2ccccc2)C(=O)C1CC12CC3CC(CC(C3)C1)C2 (racemic) [Example 33, (R/S)-3-(1-adamantyl)methyl-1-benzyl-4-(2-carboxy)ethylcarbonyl-2,7-dioxo-2,3,4,5,6,7-hexahydro-1H-1,4-benzodiazonine] | 6.31 | 10 |  | 
13 | CC(=O)N1[C@H](CC23CC4CC(CC(C4)C2)C3)C(=O)N(C)c2ccccc2C(=O)C[C@H]1C(=O)NCC(=O)O [Example 32, (3R,5S)-4-acetyl-3-(1-adamantyl)methyl-5-carboxymethylaminocarbonyl-1-methyl-2,7-dioxo-2,3,4,5,6,7-hexahydro-1H-1,4-benzodiazonine] | 10 | 5.01 |  | 

More lines, now with the values ahead:

Row | Ki (CCKA) [µM] | Ki (CCKB receptor) [µM] | pKi (Guinea pig pancreas) (CCKA) | pKi (Mouse cortex) (CCKB receptor) | Compound
14 | 7.94 | 2 |  |  | CC(=O)N1[C@H](CC23CC4CC(CC(C4)C2)C3)C(=O)N(Cc2ccc(F)cc2)c2ccccc2C(=O)C[C@H]1C(=O)NCC(=O)O [Example 58, (3R,5S)-4-acetyl-3-(1-adamantyl)methyl-1-(4-fluorobenzyl)-5-carboxymethylaminocarbonyl-2,7-dioxo-2,3,4,5,6,7-hexahydro-1H-1,4-benzodiazonine]
15 | 25.1 | 0.158 |  |  | CC(=O)N1[C@H](CC23CC4CC(CC(C4)C2)C3)C(=O)N(Cc2ccccc2F)c2ccccc2C(=O)C[C@H]1C(=O)N[C@@H](C)C(=O)O [Example 64, (3R,5S)-4-acetyl-3-(1-adamantyl)methyl-1-(2-fluorobenzyl)-5-[(1S)-carboxy]ethylaminocarbonyl-2,7-dioxo-2,3,4,5,6,7-hexahydro-1H-1,4-benzodiazonine]
16 |  |  | 5.0 | 5.6 | CC(=O)N1[C@H](CC2CCCCCC2)C(=O)N(Cc2ccccc2)c2ccccc2C(=O)C[C@H]1C(=O)NCC(=O)O [Example 39, (3R,5S)-4-acetyl-1-benzyl-5-carboxymethylaminocarbonyl-3-cycloheptylmethyl-2,7-dioxo-2,3,4,5,6,7-hexahydro-1H-1,4-benzodiazonine]
17 | 5.01 | 3.16 |  |  | CC(=O)N1[C@@H](C(=O)NCC(=O)O)CC(=O)c2ccccc2N(Cc2ccccc2)C(=O)[C@@H]1CC12CC3CC(CC(C3)C1)C2 [Example 36, (3S,5R)-4-acetyl-3-(1-adamantyl)methyl-1-benzyl-5-carboxymethylaminocarbonyl-2,7-dioxo-2,3,4,5,6,7-hexahydro-1H-1,4-benzodiazonine]
18 |  |  | 5.9 | 5.8 | Cc1cccc(NC(=O)N2CCC(c3ccccc3)c3ccccc3N(Cc3ccccc3)C(=O)C2)c1 (stereo not drawn) [Example 50, 1-benzyl-7-phenyl-4-(3-methylphenyl)carbamyl-2-oxo-2,3,4,5,6,7-hexahydro-1H-1,4-benzodiazonine]
19 | 3.98 | 10 |  |  | O=C(OCc1ccccc1)c1cccc(NC(=O)N2CCC(=O)c3ccccc3N(Cc3ccccc3)C(=O)C2)c1 [Example 46]
20 | 10 | 0.1 |  |  | CC(=O)N1[C@H](CC23CC4CC(CC(C4)C2)C3)C(=O)N(Cc2ccccc2Cl)c2ccccc2C(=O)C[C@H]1C(=O)NCC(=O)O [Example 63, (3R,5S)-4-acetyl-3-(1-adamantyl)methyl-1-(2-chlorobenzyl)-5-carboxymethylaminocarbonyl-2,7-dioxo-2,3,4,5,6,7-hexahydro-1H-1,4-benzodiazonine]
21 | 10 | 0.398 |  |  | CC(=O)N1[C@H](CC23CC4CC(CC(C4)C2)C3)C(=O)N(Cc2ccccc2)c2ccccc2C(=O)C[C@H]1C(=O)NCC(=O)NS(C)(=O)=O [Example 41, (3R,5S)-4-acetyl-3-(1-adamantyl)methyl-1-benzyl-5-methanesulphonamidocarboxymethylaminocarbonyl-2,7-dioxo-2,3,4,5,6,7-hexahydro-1H-1,4-benzodiazonine]
